pIC50: −log10 of the molar value.
What was measured:
[1] = biological target: T1, murine HDAC6 (Mus musculus, UniProt Q9Z2V5); assay: HDAC-inhibiting activity, coumarin-labeled acetylated histone peptide assay; format: biochemical; settings: murine HDAC6 from transfected 293T cells; 37° C., 30 minutes
T1 construct: made in house; host or cells: 293T cells (transient transfection, anti-FLAG immunoprecipitation, FLAG peptide elution)
T1 sequence (Q9Z2V5 1-1149): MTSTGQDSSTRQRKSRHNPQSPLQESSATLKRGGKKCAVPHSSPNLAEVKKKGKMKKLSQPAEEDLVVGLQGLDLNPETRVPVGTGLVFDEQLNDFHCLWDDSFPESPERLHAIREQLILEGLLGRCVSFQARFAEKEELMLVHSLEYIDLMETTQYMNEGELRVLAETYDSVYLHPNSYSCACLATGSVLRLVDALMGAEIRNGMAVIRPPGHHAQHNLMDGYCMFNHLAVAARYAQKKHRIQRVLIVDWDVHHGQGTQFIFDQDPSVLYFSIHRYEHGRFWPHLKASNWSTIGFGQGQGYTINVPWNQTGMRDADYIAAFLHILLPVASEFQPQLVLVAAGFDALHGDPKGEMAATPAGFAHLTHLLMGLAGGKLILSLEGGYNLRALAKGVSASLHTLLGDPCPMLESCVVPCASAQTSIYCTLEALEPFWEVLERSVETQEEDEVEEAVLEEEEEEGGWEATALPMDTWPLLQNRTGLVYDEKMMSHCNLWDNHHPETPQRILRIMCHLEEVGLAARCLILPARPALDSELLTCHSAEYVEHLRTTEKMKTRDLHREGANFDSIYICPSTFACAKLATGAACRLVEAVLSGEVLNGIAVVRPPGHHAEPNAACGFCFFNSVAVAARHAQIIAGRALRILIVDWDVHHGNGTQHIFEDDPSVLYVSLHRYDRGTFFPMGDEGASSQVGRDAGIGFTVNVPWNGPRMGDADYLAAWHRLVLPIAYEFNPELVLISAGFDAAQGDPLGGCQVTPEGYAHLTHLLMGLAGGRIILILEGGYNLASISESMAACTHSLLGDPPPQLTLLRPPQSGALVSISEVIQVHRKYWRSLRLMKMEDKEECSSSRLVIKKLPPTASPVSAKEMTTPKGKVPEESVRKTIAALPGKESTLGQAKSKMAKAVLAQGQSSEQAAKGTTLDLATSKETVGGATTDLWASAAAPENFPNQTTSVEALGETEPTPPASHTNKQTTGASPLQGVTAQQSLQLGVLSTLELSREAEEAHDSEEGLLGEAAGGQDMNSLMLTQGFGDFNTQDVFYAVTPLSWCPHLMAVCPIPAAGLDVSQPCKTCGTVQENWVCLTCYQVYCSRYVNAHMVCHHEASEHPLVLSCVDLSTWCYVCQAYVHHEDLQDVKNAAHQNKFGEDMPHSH

[2] = tested on: ovarian cancer cell line SK-OV-3; assay: Human cancer cell line panel, proliferation (sulforhodamine B); format: cell-based; settings: SK-OV-3, 2 days of cultivation; read-out: 50% inhibitory concentration, proliferation
[3] = tested on: brain tumor cell line SF-268; assay: as above; format: cell-based; settings: SF-268, 2 days of cultivation; read-out: 50% inhibitory concentration, proliferation

**Q.** `CC1(C)NC(=O)[C@H](CCCCCSCc2ccncc2)NC(=O)[C@H]2CCCN2C(=O)[C@H](Cc2ccccc2)NC1=O` [Ky-26, cyclo(-L-Am7(4-pyridylmethyl)-Aib-L-Phe-D-Pro-)] was tested. Which pIC50 [1] did it give?
**A.** 5.85

**Q.** `CC(=O)CSCCCCC[C@@H]1NC(=O)[C@H]2CCCN2C(=O)[C@H](Cc2ccccc2)NC(=O)C(C)(C)NC1=O` [Ky-72, cyclo(-L-Am7(acetonyl)-Aib-L-Phe-D-Pro-)] was tested. Which pIC50 [2] did it give?
**A.** ≥ 7.00

**Q.** What about the pIC50 [3] of the same compound?
**A.** ≥ 7.00
